The source of these data is patent US11447485B2, “Class of bifunctional compounds with quanternary ammonium salt structure” (Beijing Showby Pharmaceutical Co., Ltd., priority 2016, dated 2022).

Like-named read-outs stand apart in the source and are kept apart here.

Data set [1] deals with heart rate of Beagle dogs. The data set is described as follows: Heart rate changes after iv administration in Beagle dogs. In kind it is in vivo, Beagle dog. The protocol: Beagle dogs were randomly divided into two groups, half male and half female, and were intravenously injected (iv) with 7.5% ethanol solution of compounds of the invention and control compound. Each compound was set up in two dosage groups of 0.01 mg/kg and 0.10 mg/kg.

Data set [2] in a line: Liver microsome metabolic stability in vitro (human). The note with it: Human liver microsomes. The protocol: (§1) The area ratio of the 0 min sample was taken as 100%, and the remaining percentage of the compound after incubation at different times was obtained at each time point by comparison with the sample. With the natural logarithm of this percentage on the ordinate and time on the abscissa, a scatter plot was drawn to simulate a straight line with a negative slope of k. The parameters were calculated according to the formula.
(§2) Liver weight indicates the liver weight (g) per kilogram of body weight, and P450 indicates the amount (mg) of P450 enzyme per gram of liver.

A short description of data set [3]: Liver microsome metabolic stability in vitro (SD rat). As to conditions: SD rat liver microsomes. The protocol:
as §1, §2

Data set [4] can be described thus: Liver microsome metabolic stability in vitro (Beagle dog). As to conditions: Beagle dog liver microsomes. The protocol:
as §1, §2

Data set [5] concerns tracheal smooth muscle of guinea pig. The experiment in a line: Relaxation of CCh-induced constriction of isolated guinea pig tracheal smooth muscle (Experimental Example 1). The note with it: for Onset time (min) ± SD / Time for eliminating inhibition effect (min): CCh 3 × 10^−6 mol/L; for EC50: Cavia porcellus, read-out: EC50 (μM) ± SD. The protocol:
The upper end was connected with a muscle tension transducer, and the specimen was given a resting tension of 1.0 g. Muscle tension changes were recorded, nutrient solution was changed every 20 min, and the experiment was started after 60 min of equilibrium.
Administration Method: After the trachea flake were stabilized, 3×10^−6 mol/L CCh was added to the bath. […] Diastolic condition of the trachea flake was observed. If no response occurred (below the threshold concentration), the next dosage was continued to be added in the order. If any response occurred, the next dosage was added until its diastolic platform was reached. The above operation was repeated until the shrink curve reached the minimum. Finally, 10^−6 mol/L isoproterenol was added to establish maximum relaxation, and the curve was recorded.
Statistical Methods: Statistics was performed using the Sigma Stat statistical software package, the data was analyzed by using the variance analysis. Student-Newman-Keuls (SNK) test was used in comparison among multiple sample averages number. The statistical test level was α=0.05 (bilateral).

Data set [6] addresses T1, human recombinant β2 adrenoceptor (Homo sapiens, UniProt P07550).
T1 construct: expressed in transfected cells
The experiment in a line: cell-based. In kind it is cell-based. As to conditions: EC50 (β1)/EC50 (β2).

Data set [7] relates to bronchoconstriction response in the trachea of guinea pig induced by Mch. The data set is described as follows: Bronchoconstriction induced by methacholine (Mch) in anaesthetized guinea pigs, airway dripping (Raw, Cdyn). As to conditions: Mch 10 μg/kg iv; for Cdyn (ml/cmH2O) / Raw (cmH2O/ml/s): 30 min, Mean ± S.E.M.
Data set [8] has as its system β2 receptor in guinea pig tracheal smooth muscle. The experiment in a line: BA activity: guinea pig isolated trachea pre-treated with histamine. As to conditions: Cavia porcellus; histamine 3×10^−5 mol/L; read-out: BA (EC50). The protocol: (3) The Antagonism of the Example Compounds on β2 Receptor in Guinea Pig Tracheal Smooth Muscle
(§3) Preparation of an isolated tracheal smooth muscle specimen of a guinea pig: same as Experiment Example 1.
Administration Method: After the trachea flake was stabilized, histamine solution with a final concentration of 3×10^−5 mol/L was added for 10 min, carbachol with a final concentration of 3×10^−6 mol/L was added (observing β receptor antagonism), and administration was started when the pressure value of the trachea flake was increased to a stable platform. The experiments were divided into a blank group, a histamine+blank group, each test sample administration group and a histamine+each test sample administration group. DMSO solution prepared by K—H solution and 50 μl of test sample solution were added to each group of the blank group and each test sample administration group respectively. The histamine+blank group and histamine+each test sample administration group were added with 50 μl histamine solution for 10 min respectively, then added with DMSO solution prepared by K—H solution and 50 μl test sample solution. The test sample administration group was added with the compounds to be tested with final concentrations of 10^−9, 0.3×10^−8, 10^−8, 0.3×10^−7, 10^−7, 0.3×10^−6 and 10^−6 mol/L at cumulative concentration, and the blank group was added with corresponding diluted DMSO solution. The histamine+each test sample administration group was added with histamine for 10 min, and then added with the test compounds with final concentrations of 10^−9, 0.3×10^−8, 10^−8, 0.3×10^−7, 10^−7, 0.3×10^−6 and 10^−6 mol/L at cumulative concentration. After the histamine+blank group was added with histamine for 10 m, corresponding diluted DMSO solution was added. Medlab was used to record the relaxation degree of smooth muscle of the trachea flake. Finally theophylline with a final concentration of 2×10^−4 mol/L was added as 100% relaxation.

The test system of data set [9] is M receptor of guinea pig tracheal smooth muscle. The data set is described as follows: MA activity: guinea pig isolated trachea, propranolol blocks β receptor, CCh constriction. The note with it: Cavia porcellus; propranolol 10^−5 mol/L, CCh 3×10^−6 mol/L. The protocol: (2) Blocking Effect of Example Compounds on M Receptor of Guinea Pig Tracheal Smooth Muscle
as §3
Administration method: After trachea flake was stabilized, propranolol hydrochloride solution with a final concentration of 10^−5 mol/L was added to block β receptor for 10 min, carbachol with a final concentration of 3×10^−6 mol/L was added (observing M receptor antagonism of compound after propranolol blocks β receptor), and administration was started when the pressure value of the trachea flake was increased to a stable platform. The experiments were divided into a blank group, a propranolol+blank group, each test sample administration group and a propranolol+each test sample administration group. DMSO solution prepared by K—H solution and 50 μl of test sample solution were added to each group of the blank group and each test sample administration group respectively. The propranolol+blank group and propranolol+each test sample administration group were added with 50 μl propranolol solution for 10 min respectively, and then added with DMSO solution prepared from K—H solution and 50 μl of test sample solution. The test sample administration group was added with the compounds to be tested with final concentrations of 10^−9, 0.3×10^−8, 10^−8, 0.3×10^−7, 10^−7, 0.3×10^−6 and 10^−6 mol/L at cumulative concentration, and the blank group was added with corresponding diluted DMSO solution. The propranolol+each test sample administration group was added with propranolol for 10 min, and then added with the compounds to be tested with final concentrations of 10^−9, 0.3×10^−8, 10^−8, 0.3×10^−7, 10^−7, 0.3×10^−6 and 10^−6 mol/L at cumulative concentration. After the propranolol+blank group was added with propranolol for 10 min, corresponding diluted DMSO solution was added. Medlab was used to record the relaxation degree of tracheal smooth muscle, finally sodium nitroprusside with a final concentration of […] was added as 100% relaxation.

The mark [10] stands for this setting: in vitro, listed as Tiotropium bromine.

T1 sequence (P07550 whole entry): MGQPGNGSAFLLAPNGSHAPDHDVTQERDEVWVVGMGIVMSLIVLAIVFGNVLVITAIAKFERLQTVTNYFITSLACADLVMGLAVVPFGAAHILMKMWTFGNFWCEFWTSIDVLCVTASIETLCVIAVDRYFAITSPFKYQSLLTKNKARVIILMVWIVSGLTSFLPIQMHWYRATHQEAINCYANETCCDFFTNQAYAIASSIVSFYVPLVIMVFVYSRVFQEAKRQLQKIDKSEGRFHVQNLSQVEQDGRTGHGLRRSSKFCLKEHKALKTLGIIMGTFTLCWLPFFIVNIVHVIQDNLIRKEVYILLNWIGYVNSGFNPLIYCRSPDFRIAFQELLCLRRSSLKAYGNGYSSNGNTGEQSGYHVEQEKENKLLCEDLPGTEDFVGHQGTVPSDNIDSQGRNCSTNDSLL

`C[N+]1(C)CCC(OC(=O)Nc2cc(CCC(=O)Nc3ccc(CNC[C@H](O)c4ccc(O)c5[nH]c(=O)ccc45)cc3)ccc2-c2ccccc2)CC1.O=C([O-])C(F)(F)F` [4-({[5-(2-{[4-({[(2R)-2-hydroxy-2-(8-hydroxy-2-oxo-1,2-dihydroquinolin-5-yl)ethyl]amino}methyl)phenyl]carbamoyl}ethyl)-2-phenylphenyl]carbamoyl}oxy)-1,1-dimethylpiperidin-1-onium trifluoroacetate, reference compound]: the “0.5-4 h area increase under heart rate curve (%)” value came out at 35.2% in [1] (0.01 mg/kg iv) and 109% in data set [1] (0.10 mg/kg iv). Further, the entries for the “liver extraction rate (ERh)” value in [2], in data set [3] and in [4] were 0.36, 0.48 and 0.43, respectively.

As to `O=c1ccc2c([C@@H](O)CNCCCCCCCCCN3CCC(Cn4cnc([C@](O)(c5ccccc5)C5CCCCC5)n4)CC3)ccc(O)c2[nH]1` [5-[(1R)-2-({9-[4-({3-[(R)-cyclohexyl(hydroxy)benzyl)-1H-1,2,4-triazol-1-yl}methyl)piperidin-1-yl]nonyl}amino)-1-hydroxyethyl]-8-hydroxyquinolin-2(1H)-one, reference compound], the “0.5-4 h area increase under heart rate curve (%)” value worked out at 69.7% in [1] (0.01 mg/kg iv) and 152% in data set [1] (0.10 mg/kg iv). In addition, the “liver extraction rate (ERh)” value amounted to 0.62 in data set [2], 0.42 in [3] and 0.36 in data set [4].

Regarding `COc1cc(C(C)NC[C@H](O)c2ccc(O)c(CO)c2)ccc1OCCC[N+]12CCC(CC1)[C@@H](OC[C@@](O)(c1ccccc1)C1CCCC1)C2.[Br-]` (some centres unmarked) [Compound 70], in [5] (in vitro), the “Onset time (min) ± SD” value is listed as 7.15 ± 0.31 min and the “Time for eliminating inhibition effect (min)” value is on record as “more than 300 min”. Besides, in [5], the EC50 came out at 0.0183 ± 0.0087 µM. Besides, the “sel (β1/β2)” value in [6] is on record as 379.8. Also, in data set [7] (0.1 μg/kg airway dripping), the “Cdyn (ml/cmH2O)” value was 0.218 ± 0.013 ml/cmH2O, the “Raw (cmH2O/ml/s)” value is given as 0.702 ± 0.098 cmH2O/ml/s, the “inhibitory rate of lung dynamic compliance decrease” value was found to be 34.2% and the “inhibitory rate on airway resistance increase” value turned out to be 69.6%. Moreover, in data set [7] (0.3 μg/kg airway dripping), the “Cdyn (ml/cmH2O)” value is recorded as 0.357 ± 0.087 ml/cmH2O, the “Raw (cmH2O/ml/s)” value was found to be 0.613 ± 0.107 cmH2O/ml/s, the “inhibitory rate of lung dynamic compliance decrease” value is recorded as 47.8% and the “inhibitory rate on airway resistance increase” value worked out at 86.5%. In data set [7] (1 μg/kg airway dripping), the “Cdyn (ml/cmH2O)” value came out at 0.345 ± 0.076 ml/cmH2O, the “Raw (cmH2O/ml/s)” value is recorded as 0.431 ± 0.095 cmH2O/ml/s, the “inhibitory rate of lung dynamic compliance decrease” value was determined as 49.3% and the “inhibitory rate on airway resistance increase” value amounted to 92.1%.

Take `CC(C)(Cc1ccc(OCC[N+]23CCC(CC2)[C@@H](OC[C@@](O)(c2ccccc2)C2CCCCC2)C3)cc1)NC[C@H](O)c1ccc(O)c(NC=O)c1.[Br-]` [Compound 99]: in [5] (in vitro), the “Onset time (min) ± SD” value is recorded as 7.35 ± 0.33 min and the “Time for eliminating inhibition effect (min)” value is “more than 300 min”. Further, the EC50 in [5] was 0.0172 ± 0.0072 µM. In [6], the “sel (β1/β2)” value is listed as 389. For the same compound, in data set [7] (0.1 μg/kg airway dripping), the “Cdyn (ml/cmH2O)” value came out at 0.120 ± 0.017 ml/cmH2O, the “Raw (cmH2O/ml/s)” value is given as 0.778 ± 0.073 cmH2O/ml/s, the “inhibitory rate of lung dynamic compliance decrease” value came out at 35.0% and the “inhibitory rate on airway resistance increase” value is given as 73.5%. Moreover, in data set [7] (0.3 μg/kg airway dripping), the “Cdyn (ml/cmH2O)” value is listed as 0.158 ± 0.021 ml/cmH2O, the “Raw (cmH2O/ml/s)” value is 0.528 ± 0.082 cmH2O/ml/s, the “inhibitory rate of lung dynamic compliance decrease” value turned out to be 48.8% and the “inhibitory rate on airway resistance increase” value turned out to be 86.8%. Moreover, in data set [7] (1 μg/kg airway dripping), the “Cdyn (ml/cmH2O)” value came out at 0.223 ± 0.035 ml/cmH2O, the “Raw (cmH2O/ml/s)” value is reported as 0.421 ± 0.069 cmH2O/ml/s, the “inhibitory rate of lung dynamic compliance decrease” value is 49.7% and the “inhibitory rate on airway resistance increase” value was 91.9%.

Take `COc1cc(NC(=O)CC[N+]23CCC(CC2)[C@@H](OC[C@@](O)(c2ccccc2)C2CCCC2)C3)c(Cl)cc1CNC[C@H](O)c1ccc(O)c(NC=O)c1.[Br-]` [Compound 138]: in data set [5] (in vitro), the “Onset time (min) ± SD” value worked out at 6.56 ± 0.23 min and the “Time for eliminating inhibition effect (min)” value is on record as “more than 300 min”. The concentration for a half-maximal effect (EC50) in [5] came to 0.0186 ± 0.0033 µM. The “sel (β1/β2)” value in data set [6] worked out at 228.3. For the same compound, in data set [7] (0.1 μg/kg airway dripping), the “Cdyn (ml/cmH2O)” value came to 0.124 ± 0.019 ml/cmH2O, the “Raw (cmH2O/ml/s)” value was 0.687 ± 0.079 cmH2O/ml/s, the “inhibitory rate of lung dynamic compliance decrease” value was 31.0% and the “inhibitory rate on airway resistance increase” value is 74.8%. In addition, in [7] (0.3 μg/kg airway dripping), the “Cdyn (ml/cmH2O)” value is listed as 0.158 ± 0.036 ml/cmH2O, the “Raw (cmH2O/ml/s)” value came out at 0.508 ± 0.093 cmH2O/ml/s, the “inhibitory rate of lung dynamic compliance decrease” value was determined as 48.2% and the “inhibitory rate on airway resistance increase” value was found to be 88.9%. Further, in data set [7] (1 μg/kg airway dripping), the “Cdyn (ml/cmH2O)” value amounted to 0.231 ± 0.022 ml/cmH2O, the “Raw (cmH2O/ml/s)” value is on record as 0.418 ± 0.086 cmH2O/ml/s, the “inhibitory rate of lung dynamic compliance decrease” value is recorded as 49.9% and the “inhibitory rate on airway resistance increase” value is 92.6%.

With `OCc1cc(C(O)CNCCCCCCOCCCCc2ccccc2)ccc1O` (centres unmarked) [Salmeterol, reference compound], the 50% effective concentration (EC50) in data set [8] came to 93.8 ± 6.8 nM.

With `C[N+]1(C)[C@@H]2C[C@@H](OC(=O)C(O)(c3cccs3)c3cccs3)C[C@H]1[C@@H]1O[C@@H]12` [Tiotropium Bromide, tiotropium bromide, reference compound], the “Onset time (min) ± SD” value in data set [5] (in vitro) is listed as “slow”; in [5] (setting [10]), 30.37 ± 0.50 min. For the same compound, the “Time for eliminating inhibition effect (min)” value in [5] (in vitro) is on record as “long duration of action”; in data set [5] (setting [10]), “more than 300 min”. Further, the EC50 in [5] (constriction induced by CCh 3 × 10^−6 mol/L, in vitro) worked out at 0.0142 ± 0.0022 µM; in [9] it was 12.2 ± 0.8 nM.
